Measurements as given in patent US8415469B2, “Compounds and methods for kinase modulation, and indications therefor” (Plexxikon Inc., priority 2005, dated 2013).

Tests used:
Format in all cases: biochemical
[1] = molecular target: T1, Fak (Homo sapiens, UniProt Q05397); assay: AlphaScreen kinase assay, Fak; settings: read-out: IC50, activity toward kinase Fak
T1 construct: P1358.pFastBacHtb FAK S411-Q686-X; His6 with pFastBacHTb leader (TEV site) (N); made in house; host or cells: Sf9 (baculovirus)

[2] = molecular target: T2, Met (Homo sapiens, UniProt P08581); assay: AlphaScreen kinase assay, Met; settings: read-out: IC50, activity toward kinase Met
T2 construct: P1818.pETN6 BI-PTP MET G1056-G1364-X WT; His6 (N); made in house; host or cells: E. coli (PTP1B co-expressed)
From the text: AlphaScreen assay was used to screen additional kinases. The assay is similarly dependent on the phosphorylation of a peptide substrate. In this assay, an antibody that recognizes phosphorylated substrate is bound to an acceptor bead. The peptide substrate is attached to biotin, which binds to a donor head that contains streptavidin. Thus phosphorylated substrate is bound by antibody and streptavidin, bringing the donor and acceptor heads into close proximity when kinase is not inhibited. The donor produces singlet oxygen which results in emission from the acceptor when they are in close proximity. Conversely, when kinase is inhibited, the donor and acceptor beads are not associated and the emission from the acceptor is reduced.
AlphaScreen assays were done using compounds dissolved in DMSO to a concentration of 20 mM. The compounds were diluted accordingly to the desired final concentrations in each sample well, using 1:3 serial dilution for a total of 8 concentration points.

[3] = molecular target: T3, B-Raf V600E (Homo sapiens, UniProt P15056, V600E); assay: AlphaScreen kinase assay, B-Raf V600E; settings: read-out: IC50, activity toward kinase B-Raf V600E
T3 construct: P4254. pFastBacBD-CDC37 BRAF D437-K722-X, V600E; His6 with pFastBac HT leader (TEV site) (N); made in house; host or cells: Sf9 (baculovirus; chaperone CDC37 co-expressed)

[4] = molecular target: T4, B-Raf (Homo sapiens, UniProt P15056); assay: AlphaScreen kinase assay, B-Raf; settings: read-out: IC50, activity toward kinase B-Raf
T4 construct: purchased Upstate Biotechnology

[5] = molecular target: T5, Ret (Homo sapiens, UniProt P07949); assay: AlphaScreen kinase assay, Ret; settings: read-out: IC50, activity toward kinase Ret
T5 construct: P1378.pET-SF BI-PTP RET H661-R1012 HIS; made in house
T5 sequence (P07949 with tags, fused parts or gaps): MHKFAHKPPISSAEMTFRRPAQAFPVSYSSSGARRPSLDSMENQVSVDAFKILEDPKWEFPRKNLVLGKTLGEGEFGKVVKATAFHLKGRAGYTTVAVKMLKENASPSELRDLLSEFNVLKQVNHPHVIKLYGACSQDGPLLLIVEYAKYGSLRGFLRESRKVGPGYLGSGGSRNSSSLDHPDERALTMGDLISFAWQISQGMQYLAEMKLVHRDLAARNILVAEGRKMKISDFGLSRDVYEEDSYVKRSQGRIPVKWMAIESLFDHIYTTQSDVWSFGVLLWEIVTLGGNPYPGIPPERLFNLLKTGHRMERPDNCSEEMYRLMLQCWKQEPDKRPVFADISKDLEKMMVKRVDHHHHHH

[6] = molecular target: T6, Jnk3 (Homo sapiens, UniProt P53779); assay: AlphaScreen kinase assay, Jnk3; settings: read-out: IC50, activity toward kinase Jnk3
T6 construct: purchased Upstate Biotechnology

[7] = molecular target: T7, Jnk1 (Homo sapiens, UniProt P45983); assay: AlphaScreen kinase assay, Jnk1; settings: read-out: IC50, activity toward kinase Jnk1
T7 construct: purchased Upstate Biotechnology

[8] = molecular target: T8, Jnk2 (Homo sapiens, UniProt P45984); assay: AlphaScreen kinase assay, Jnk2; settings: read-out: IC50, activity toward kinase Jnk2
T8 construct: purchased Roche Protein Expression Group (Indianapolis, IN)
Procedure, shortened: (§1)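 Biotinylated peptide substrate is phosphorylated by kinase; anti-phosphopeptide antibody on acceptor beads and streptavidin donor beads bring emission when substrate is phosphorylated. Inhibition lowers acceptor signal. Compounds from 20 mM DMSO stock tested as 8-point 1:3 serial dilutions.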

[9] = molecular target: T9, c-Raf-1 (Homo sapiens, UniProt P04049); assay: AlphaScreen kinase assay, c-Raf-1; settings: read-out: IC50, activity toward kinase c-Raf-1
T9 construct: purchased Upstate Biotechnology

[10] = molecular target: T10, FGFR1 (Homo sapiens, UniProt P11362, C488A/C584S); assay: AlphaScreen kinase assay, FGFR1; settings: read-out: IC50, activity toward kinase FGFR
T10 construct: P1351.pET N6 BI-PTP FGFR A458-E765-X C488A, C584S; made in house; host or cells: E. coli (PTP1B co-expressed)

[11] = molecular target: T11, Stk6 (Homo sapiens, UniProt O14965); assay: Z'-Lyte FRET kinase assay (Invitrogen), Stk6; settings: read-out: IC50, activity toward kinase Stk6
T11 construct: purchased Invitrogen (Carlsbad, Calif.), screening service
T11 sequence (O14965 1-403): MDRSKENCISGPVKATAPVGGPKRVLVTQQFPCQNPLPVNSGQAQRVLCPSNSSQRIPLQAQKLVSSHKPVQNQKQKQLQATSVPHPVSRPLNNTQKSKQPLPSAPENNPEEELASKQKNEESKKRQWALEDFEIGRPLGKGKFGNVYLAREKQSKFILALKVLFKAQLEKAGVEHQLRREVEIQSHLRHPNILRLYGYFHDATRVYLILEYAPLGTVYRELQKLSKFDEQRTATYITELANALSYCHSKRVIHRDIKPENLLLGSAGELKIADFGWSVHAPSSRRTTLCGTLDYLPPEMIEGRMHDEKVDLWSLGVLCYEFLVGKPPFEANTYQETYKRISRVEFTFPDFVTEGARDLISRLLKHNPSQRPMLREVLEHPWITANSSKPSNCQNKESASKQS

[12] = molecular target: T12, Kit (Homo sapiens, UniProt P10721); assay: AlphaScreen kinase assay, Kit; settings: read-out: IC50, activity toward kinase Kit
T12 construct: P1332.N6 BI PTP KIT M552-K948-X COD; His6 (N); made in house; host or cells: E. coli (PTP1B co-expressed)

[13] = molecular target: T13, Src (Homo sapiens, UniProt P12931); assay: AlphaScreen kinase assay, Src; settings: read-out: IC50, activity toward kinase Src
T13 construct: P1144. pET-N6 BI-PTP SRC V86-L536-X; made in house

[14] = molecular target: T14, Fms (Homo sapiens, UniProt P07333); assay: AlphaScreen kinase assay, Fms; settings: read-out: IC50, activity toward kinase Fms
T14 construct: purchased Upstate Biotechnology

[15] = molecular target: T15, Flt1 (Homo sapiens, UniProt P17948); assay: AlphaScreen kinase assay, Flt1; settings: read-out: IC50, activity toward kinase Flt1
T15 construct: P1826.pETN6 BI-PTP FLT1 M799-D1165-X WT; His6 (N); made in house; host or cells: E. coli (PTP1B co-expressed)
T15 sequence (P17948 with tags, fused parts or gaps): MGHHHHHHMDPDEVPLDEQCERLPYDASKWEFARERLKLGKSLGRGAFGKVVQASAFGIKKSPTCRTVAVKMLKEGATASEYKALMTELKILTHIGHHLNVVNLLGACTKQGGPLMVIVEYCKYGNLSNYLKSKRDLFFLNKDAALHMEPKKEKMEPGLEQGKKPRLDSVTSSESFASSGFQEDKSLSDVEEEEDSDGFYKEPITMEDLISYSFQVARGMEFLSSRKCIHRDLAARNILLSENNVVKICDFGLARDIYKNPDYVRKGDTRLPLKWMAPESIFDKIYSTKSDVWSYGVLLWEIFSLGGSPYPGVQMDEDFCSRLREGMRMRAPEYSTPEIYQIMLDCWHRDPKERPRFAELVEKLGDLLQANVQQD

[16] = molecular target: MAP4K4 (Homo sapiens, UniProt O95819); assay: AlphaScreen kinase assay, MAP4K4; settings: read-out: IC50, activity toward kinase MAP4K4
[17] = molecular target: T16, Kdr (Homo sapiens, UniProt P35968); assay: Z'-Lyte FRET kinase assay (Invitrogen), Kdr; settings: read-out: IC50, activity toward kinase Kdr
T16 construct: purchased Invitrogen (assay run by Invitrogen)

[18] = molecular target: T17, Pyk2 (Homo sapiens, UniProt Q14289); assay: AlphaScreen kinase assay, Pyk2; settings: read-out: IC50, activity toward kinase Pyk2
T17 construct: purchased Upstate Biotechnology

[19] = molecular target: T18, Zap70 (Homo sapiens, UniProt P43403); assay: AlphaScreen kinase assay, Zap70; settings: read-out: IC50, activity toward kinase Zap70
T18 construct: P1868.pFastBac1 ZAP70 D327-G606 HIS, WT; His7 (HHHHHHH) (C); made in house
T18 sequence (P43403 with tags, fused parts or gaps): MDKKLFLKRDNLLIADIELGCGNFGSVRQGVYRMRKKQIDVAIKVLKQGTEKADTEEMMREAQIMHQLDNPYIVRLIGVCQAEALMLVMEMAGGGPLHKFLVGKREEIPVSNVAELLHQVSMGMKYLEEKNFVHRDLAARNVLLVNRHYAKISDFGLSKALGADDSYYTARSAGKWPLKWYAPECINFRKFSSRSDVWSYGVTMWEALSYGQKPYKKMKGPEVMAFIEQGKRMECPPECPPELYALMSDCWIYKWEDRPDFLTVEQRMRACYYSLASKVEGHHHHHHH
Procedure, shortened: as §1

T7 sequence (P45983 whole entry): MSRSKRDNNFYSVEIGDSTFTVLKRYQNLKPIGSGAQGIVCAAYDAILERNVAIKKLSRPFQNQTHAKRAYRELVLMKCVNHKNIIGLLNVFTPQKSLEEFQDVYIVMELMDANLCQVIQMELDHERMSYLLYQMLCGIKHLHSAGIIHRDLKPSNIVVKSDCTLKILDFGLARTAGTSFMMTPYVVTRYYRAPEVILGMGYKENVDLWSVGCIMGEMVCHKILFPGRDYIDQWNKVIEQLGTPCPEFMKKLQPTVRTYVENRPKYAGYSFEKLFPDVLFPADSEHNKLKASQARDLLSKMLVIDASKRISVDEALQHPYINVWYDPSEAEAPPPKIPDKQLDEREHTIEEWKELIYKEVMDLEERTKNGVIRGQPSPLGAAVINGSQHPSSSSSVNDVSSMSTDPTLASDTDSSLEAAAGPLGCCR
T3 sequence (P15056 with tags, fused parts or gaps V600E): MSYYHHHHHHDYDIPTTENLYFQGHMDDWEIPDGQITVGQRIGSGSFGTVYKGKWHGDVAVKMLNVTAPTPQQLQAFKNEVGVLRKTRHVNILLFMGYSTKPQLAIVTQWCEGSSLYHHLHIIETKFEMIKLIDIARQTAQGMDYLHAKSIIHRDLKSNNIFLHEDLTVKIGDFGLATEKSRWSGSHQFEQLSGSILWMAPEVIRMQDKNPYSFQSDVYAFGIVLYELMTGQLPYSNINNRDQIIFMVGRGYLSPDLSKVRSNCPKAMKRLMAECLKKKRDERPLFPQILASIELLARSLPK
T16 sequence (P35968 20-1356): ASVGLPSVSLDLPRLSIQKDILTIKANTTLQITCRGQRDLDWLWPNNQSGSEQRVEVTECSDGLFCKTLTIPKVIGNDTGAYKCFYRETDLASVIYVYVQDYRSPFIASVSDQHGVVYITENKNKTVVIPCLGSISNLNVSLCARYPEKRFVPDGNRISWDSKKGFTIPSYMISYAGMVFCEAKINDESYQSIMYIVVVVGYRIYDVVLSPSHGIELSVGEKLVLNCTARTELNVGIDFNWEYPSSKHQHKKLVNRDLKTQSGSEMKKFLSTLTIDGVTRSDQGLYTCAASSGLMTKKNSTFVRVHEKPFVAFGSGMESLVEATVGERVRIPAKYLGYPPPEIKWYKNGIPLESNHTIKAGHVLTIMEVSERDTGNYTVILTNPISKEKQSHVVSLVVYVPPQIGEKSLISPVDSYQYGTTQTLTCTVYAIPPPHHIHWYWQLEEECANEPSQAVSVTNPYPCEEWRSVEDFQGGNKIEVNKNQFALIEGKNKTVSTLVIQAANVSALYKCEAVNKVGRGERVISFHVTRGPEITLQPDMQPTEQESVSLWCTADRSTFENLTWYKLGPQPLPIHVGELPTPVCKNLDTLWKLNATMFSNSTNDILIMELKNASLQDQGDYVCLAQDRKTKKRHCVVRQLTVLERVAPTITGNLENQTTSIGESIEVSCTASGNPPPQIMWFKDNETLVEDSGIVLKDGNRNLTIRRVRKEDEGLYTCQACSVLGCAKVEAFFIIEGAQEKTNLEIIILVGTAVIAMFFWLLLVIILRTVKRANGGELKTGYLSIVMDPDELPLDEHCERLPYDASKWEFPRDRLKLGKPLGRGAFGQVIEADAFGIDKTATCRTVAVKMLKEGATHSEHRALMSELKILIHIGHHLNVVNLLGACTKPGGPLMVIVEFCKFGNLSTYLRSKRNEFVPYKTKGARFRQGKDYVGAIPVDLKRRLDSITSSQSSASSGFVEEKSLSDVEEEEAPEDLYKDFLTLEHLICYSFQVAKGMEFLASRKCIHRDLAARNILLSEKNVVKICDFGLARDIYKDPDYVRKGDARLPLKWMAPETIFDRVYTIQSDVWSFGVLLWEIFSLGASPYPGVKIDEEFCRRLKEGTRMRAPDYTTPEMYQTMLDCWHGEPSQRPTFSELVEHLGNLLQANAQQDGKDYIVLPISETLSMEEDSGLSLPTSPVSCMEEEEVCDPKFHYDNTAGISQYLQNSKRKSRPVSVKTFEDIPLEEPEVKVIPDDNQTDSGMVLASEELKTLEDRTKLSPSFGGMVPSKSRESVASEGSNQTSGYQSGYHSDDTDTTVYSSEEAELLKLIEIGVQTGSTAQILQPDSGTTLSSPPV
T12 sequence (P10721 with tags, fused parts or gaps): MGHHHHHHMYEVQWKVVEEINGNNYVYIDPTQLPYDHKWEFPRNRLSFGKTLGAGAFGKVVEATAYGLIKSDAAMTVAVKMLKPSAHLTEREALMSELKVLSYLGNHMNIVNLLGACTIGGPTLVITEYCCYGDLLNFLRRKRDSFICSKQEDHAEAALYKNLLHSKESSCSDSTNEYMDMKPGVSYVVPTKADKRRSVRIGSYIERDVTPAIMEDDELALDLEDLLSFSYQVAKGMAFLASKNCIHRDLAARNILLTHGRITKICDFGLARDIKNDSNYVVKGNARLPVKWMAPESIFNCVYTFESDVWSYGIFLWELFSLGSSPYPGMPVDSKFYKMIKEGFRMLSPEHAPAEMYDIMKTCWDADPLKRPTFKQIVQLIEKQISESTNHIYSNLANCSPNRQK
T10 sequence (P11362 458-765 C488A/C584S): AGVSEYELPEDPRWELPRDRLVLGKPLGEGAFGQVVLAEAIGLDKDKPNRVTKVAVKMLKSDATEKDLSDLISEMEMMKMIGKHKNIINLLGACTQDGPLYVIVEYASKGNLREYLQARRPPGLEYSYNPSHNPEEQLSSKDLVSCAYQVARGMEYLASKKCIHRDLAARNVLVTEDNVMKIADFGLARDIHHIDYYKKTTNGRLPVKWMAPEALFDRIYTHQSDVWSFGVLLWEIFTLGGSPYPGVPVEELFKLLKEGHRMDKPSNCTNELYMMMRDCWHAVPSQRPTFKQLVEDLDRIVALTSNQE
T14 sequence (P07333 20-972): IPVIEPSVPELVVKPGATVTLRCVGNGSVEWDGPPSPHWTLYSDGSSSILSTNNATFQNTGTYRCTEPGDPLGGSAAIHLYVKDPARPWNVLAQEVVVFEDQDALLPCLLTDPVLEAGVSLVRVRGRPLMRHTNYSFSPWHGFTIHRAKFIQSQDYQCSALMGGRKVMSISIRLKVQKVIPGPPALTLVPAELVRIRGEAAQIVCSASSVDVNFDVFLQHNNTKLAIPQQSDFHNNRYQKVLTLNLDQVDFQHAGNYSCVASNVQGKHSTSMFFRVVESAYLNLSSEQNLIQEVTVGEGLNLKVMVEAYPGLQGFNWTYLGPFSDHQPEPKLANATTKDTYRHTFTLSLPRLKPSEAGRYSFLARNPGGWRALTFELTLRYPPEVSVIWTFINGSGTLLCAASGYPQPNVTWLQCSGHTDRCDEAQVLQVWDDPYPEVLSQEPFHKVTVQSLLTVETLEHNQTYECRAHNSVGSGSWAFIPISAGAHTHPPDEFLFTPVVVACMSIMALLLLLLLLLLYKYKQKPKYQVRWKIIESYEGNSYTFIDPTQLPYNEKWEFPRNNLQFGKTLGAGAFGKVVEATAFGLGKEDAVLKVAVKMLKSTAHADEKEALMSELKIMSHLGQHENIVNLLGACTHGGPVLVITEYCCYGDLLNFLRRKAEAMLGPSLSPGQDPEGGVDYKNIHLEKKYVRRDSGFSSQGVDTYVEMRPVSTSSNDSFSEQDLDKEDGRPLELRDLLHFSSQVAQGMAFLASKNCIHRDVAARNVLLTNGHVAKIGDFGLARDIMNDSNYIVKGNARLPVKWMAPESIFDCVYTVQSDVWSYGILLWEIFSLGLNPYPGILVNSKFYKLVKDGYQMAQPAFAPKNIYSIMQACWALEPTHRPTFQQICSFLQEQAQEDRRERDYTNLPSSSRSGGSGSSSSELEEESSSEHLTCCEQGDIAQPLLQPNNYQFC
Chain of MAP4K4 (O95819 whole entry): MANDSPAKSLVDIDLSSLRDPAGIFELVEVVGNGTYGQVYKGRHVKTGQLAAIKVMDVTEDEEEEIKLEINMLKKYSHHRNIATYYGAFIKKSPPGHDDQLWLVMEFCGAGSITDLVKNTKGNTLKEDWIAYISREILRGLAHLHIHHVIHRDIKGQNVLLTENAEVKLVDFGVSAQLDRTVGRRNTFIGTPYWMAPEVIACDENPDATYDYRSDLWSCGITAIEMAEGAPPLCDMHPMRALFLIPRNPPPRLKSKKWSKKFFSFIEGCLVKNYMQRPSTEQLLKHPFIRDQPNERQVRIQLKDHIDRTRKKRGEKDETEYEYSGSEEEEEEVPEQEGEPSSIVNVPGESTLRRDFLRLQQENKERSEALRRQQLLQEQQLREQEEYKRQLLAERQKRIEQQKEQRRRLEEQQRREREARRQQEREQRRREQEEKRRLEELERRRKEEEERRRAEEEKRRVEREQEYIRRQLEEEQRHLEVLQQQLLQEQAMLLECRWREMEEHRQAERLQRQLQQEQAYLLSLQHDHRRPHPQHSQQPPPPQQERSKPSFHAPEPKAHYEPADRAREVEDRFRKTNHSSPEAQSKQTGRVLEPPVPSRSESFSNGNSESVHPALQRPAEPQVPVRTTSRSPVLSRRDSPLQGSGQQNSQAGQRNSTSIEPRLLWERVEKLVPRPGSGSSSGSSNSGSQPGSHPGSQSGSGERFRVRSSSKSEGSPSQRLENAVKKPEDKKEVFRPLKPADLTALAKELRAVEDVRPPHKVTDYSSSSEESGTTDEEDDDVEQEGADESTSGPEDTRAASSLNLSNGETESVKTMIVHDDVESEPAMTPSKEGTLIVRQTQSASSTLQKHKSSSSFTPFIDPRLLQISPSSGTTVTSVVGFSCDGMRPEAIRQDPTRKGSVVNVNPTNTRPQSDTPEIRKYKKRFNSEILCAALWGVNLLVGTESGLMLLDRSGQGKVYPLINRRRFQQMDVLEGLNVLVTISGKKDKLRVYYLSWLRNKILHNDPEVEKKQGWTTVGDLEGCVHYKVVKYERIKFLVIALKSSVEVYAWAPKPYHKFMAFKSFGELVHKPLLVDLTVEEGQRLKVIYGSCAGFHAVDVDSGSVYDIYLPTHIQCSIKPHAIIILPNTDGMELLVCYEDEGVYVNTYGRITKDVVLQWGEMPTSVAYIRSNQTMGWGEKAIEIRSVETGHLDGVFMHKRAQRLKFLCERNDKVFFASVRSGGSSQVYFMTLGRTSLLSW

Row | SMILES | IC50 [1] [µM] | IC50 [2] [µM] | IC50 [3] [µM] | IC50 [4] [µM] | IC50 [5] [µM] | IC50 [6] [µM] | IC50 [7] [µM] | IC50 [8] [µM] | IC50 [9] [µM] | IC50 [10] [µM] | IC50 [11] [µM] | IC50 [12] [µM] | IC50 [13] [µM] | IC50 [14] [µM] | IC50 [15] [µM] | IC50 [16] [µM] | IC50 [17] [µM] | IC50 [18] [µM] | IC50 [19] [µM]
1 | O=C(c1c(F)ccc(O)c1F)c1c[nH]c2ncc(-c3cccnc3)cc12 [Compound P-0066, (2,6-Difluoro-3-hydroxy-phenyl)-(5-pyridin-3-yl-1H-pyrrolo[2,3-b]pyridin-3-yl)-methanone] |  | ≤ 10 | ≤ 10 | ≤ 10 | ≤ 10 | ≤ 10 | ≤ 10 | ≤ 10 | ≤ 10 | ≤ 10 |  |  |  |  |  |  |  |  | 
2 | Fc1ccc(-c2ccnc3[nH]cc(Sc4cccs4)c23)cc1 [Compound P-0419] |  | ≤ 10 |  |  |  |  |  |  |  |  | ≤ 10 |  |  |  |  |  |  |  | 
3 | CS(=O)(=O)Nc1ccc(F)c(C(=O)c2c[nH]c3ncc(-c4ccccc4)cc23)c1F [Compound P-0184, N-[2,4-Difluoro-3-(5-phenyl-1H-pyrrolo[2,3-b]pyridine-3-carbonyl)-phenyl]-methanesulfonamide] |  | ≤ 10 | ≤ 10 | ≤ 10 | ≤ 10 | ≤ 10 | ≤ 10 | ≤ 10 | ≤ 10 | ≤ 10 |  | ≤ 10 |  | ≤ 10 | ≤ 10 |  | ≤ 10 |  | 
4 | O=C(c1c(F)ccc(NS(=O)(=O)c2ccccc2)c1F)c1c[nH]c2ncc(-c3cccnc3)cc12 [Compound P-0685, N-[2,4-Difluoro-3-(5-pyridin-3-yl-1H-pyrrolo[2,3-b]pyridine-3-carbonyl)-phenyl]-benzenesulfonamide] | ≤ 10 | ≤ 10 | ≤ 10 | ≤ 10 |  |  | ≤ 10 | ≤ 10 | ≤ 10 | ≤ 10 |  | ≤ 10 | ≤ 10 | ≤ 10 | ≤ 10 | ≤ 10 |  | ≤ 10 | 
5 | O=C(Nc1ccc(Cc2c[nH]c3ncccc23)cc1)Nc1ccc(Cl)c(C(F)(F)F)c1 [Compound P-0369] |  | ≤ 10 | ≤ 10 | ≤ 10 | ≤ 10 |  |  |  | ≤ 10 | ≤ 10 |  | ≤ 10 |  | ≤ 10 |  | ≤ 10 | ≤ 10 | ≤ 10 | 
6 | COc1cccc(Cc2c[nH]c3ncc(-c4cccnc4)cc23)c1F [Compound P-0269, 3-(2-Fluoro-3-methoxy-benzyl)-5-pyridin-3-yl-1H-pyrrolo[2,3-b]pyridine] | ≤ 10 | ≤ 10 | ≤ 10 | ≤ 10 | ≤ 10 | ≤ 10 | ≤ 10 | ≤ 10 | ≤ 10 | ≤ 10 | ≤ 10 | ≤ 10 | ≤ 10 | ≤ 10 | ≤ 10 | ≤ 10 | ≤ 10 | ≤ 10 | 

Other lines, results leading:

Row | IC50 [1] [µM] | IC50 [2] [µM] | IC50 [3] [µM] | IC50 [4] [µM] | IC50 [5] [µM] | IC50 [6] [µM] | IC50 [7] [µM] | IC50 [8] [µM] | IC50 [9] [µM] | IC50 [10] [µM] | IC50 [11] [µM] | IC50 [12] [µM] | IC50 [13] [µM] | IC50 [14] [µM] | IC50 [15] [µM] | IC50 [16] [µM] | IC50 [17] [µM] | IC50 [18] [µM] | IC50 [19] [µM] | SMILES
7 | ≤ 10 | ≤ 10 |  |  |  |  |  |  |  |  |  |  |  |  |  |  |  |  |  | CCOc1ccccc1-c1ccnc2[nH]ccc12 [Compound P-1114]
8 | ≤ 10 | ≤ 10 | ≤ 10 | ≤ 10 | ≤ 10 |  | ≤ 10 | ≤ 10 | ≤ 10 | ≤ 10 |  | ≤ 10 | ≤ 10 | ≤ 10 | ≤ 10 |  |  |  |  | CS(=O)(=O)Nc1ccc(F)c(C(=O)c2c[nH]c3ncc(-c4cccc(C(N)=O)c4)cc23)c1F [Compound P-0721, 3-[3-(2,6-Difluoro-3-methanesulfonylamino-benzoyl)-1H-pyrrolo[2,3-b]pyridin-5-yl]-benzamide]
9 | ≤ 10 | ≤ 10 | ≤ 10 |  | ≤ 10 |  |  |  | ≤ 10 | ≤ 10 |  |  |  | ≤ 10 |  | ≤ 10 |  |  |  | CS(=O)(=O)Nc1ccc(F)c(C(=O)c2c[nH]c3ncccc23)c1F [Compound P-0811]
10 |  | ≤ 10 | ≤ 10 | ≤ 10 |  |  |  |  | ≤ 10 |  |  |  |  |  |  |  |  |  | ≤ 10 | Clc1ccc(Nc2ccnc3[nH]ccc23)cc1Cl [Compound P-0842]
